# Where “and” joins values, the source holds several entries; their conditions need not be identical. Equal values may be shown once.
# B1: T7 RNA polymerase F644Y/Δ1: T7 RNA polymerase F644Y deficient in amino acids 172 and 173; plasmid pT7RF644Y/Δ1, FERM BP-7619 (protein, UniProt P00573 1-883, looked up, variant F644Y del172-173)
# T7 RNA polymerase: MNTINIAKNDFSDIELAAIPFNTLADHYGERLAREQLALEHESYEMGEARFRKMFERQLKAGEVADNAAAKPLITTLLPKMIARINDWFEEVKAKRGKRPTAFQFLQEIKPEAVAYITIKTTLACLTSADNTTVQAVASAIGRAIEDEARFGRIRDLEAKHFKKNVEEQLNVGHVYKKAFMQVVEADMLSKGLLGGEAWSSWHKEDSIHVGVRCIEMLIESTGMVSLHRQNAGVVGQDSETIELAPEYAEAIATRAGALAGISPMFQPCVVPPKPWTGITGGGYWANGRRPLALVRTHSKKALMRYEDVYMPEVYKAINIAQNTAWKINKKVLAVANVITKWKHCPVEDIPAIEREELPMKPEDIDMNPEALTAWKRAAAAVYRKDKARKSRRISLEFMLEQANKFANHKAIWFPYNMDWRGRVYAVSMFNPQGNDMTKGLLTLAKGKPIGKEGYYWLKIHGANCAGVDKVPFPERIKFIEENHENIMACAKSPLENTWWAEQDSPFCFLAFCFEYAGVQHHGLSYNCSLPLAFDGSCSGIQHFSAMLRDEVGGRAVNLLPSETVQDIYGIVAKKVNEILQADAINGTDNEVVTVTDENTGEISEKVKLGTKALAGQWLAYGVTRSVTKRSVMTLAYGSKEYGFRQQVLEDTIQPAIDSGKGLMFTQPNQAAGYMAKLIWESVSVTVVAAVEAMNWLKSAAKLLAAEVKDKKTGEILRKRCAVHWVTPDGFPVWQEYKKPIQTRLNLMFLGQFRLQPTINTNKDSEIDAHKQESGIAPNFVHSQDGSHLRKTVVWAHEKYGIESFALIHDSFGTIPADAANLFKAVRETMVDTYESCDVLADFYDQFADQLHESQLDKMPALPAKGNLNLRDILESDFAFA
# Legend:
# 3′-dATP [1] = test: Test (1): 3′-dATP added during in vitro transcription, amount of RNA synthesized (SYBER Green II gel image); assay type: biochemical; conditions: 3′-dATP concentration 0.024 mM, wild form of T7 RNA polymerase taken as 1, inverse of RNA synthesis level
# Method: (§1) The ability to incorporate 3′-dATP of the Δ type enzyme of purified T7 RNA polymerase was compared to that of the wild type and F644Y mutation.
# In this method, 3′-dATP was added during an in vitro transcription reaction and the synthesis level was determined by comparison with synthesis impairment. This will be described in greater detail. The template employed was pBluescriptII (Stratagene) pretreated with the restriction enzyme ScaI (made by Nippon Gene). The reaction conditions were: 40 mM Tris-HCl, pH 8.0, 25 mM NaCl, 8 mM MgCl2, 2 mM spermidine-(HCl)3, and 5 mM DTT. The concentration of nucleotides ATP, CTP, GTP, and UTP was 0.5 mM. Of these, ATP was replaced with 3′-dATP (Sigma) in ranges of 0.006 mM, 0.008 mM, 0.012 mM, and 0.024 mM. The above purified enzymes were added to 20 μL of this solution and the reaction was conducted for 30 to 60 min at 37° C. At the conclusion of the reaction, 4 μL of 5× gel loading buffer was added (15% Ficoll, 0.1% BPB, 0.1% XC, 0.5% SDS, and 0.1 M EDTA). The entire solution was then subjected to electrophoresis in a 1% modified agarose gel containing formaldehyde. At the conclusion of electrophoresis, 10,000-fold dilution was conducted with SYBER Green II (made by Molecular Probe Co.) and dying was conducted for 20 to 40 min according to a protocol of addition to the product. A Fluoro S Multiimager (BiORad Co.) was then employed to irradiate ultraviolet radiation and pick up the fluorescent image. Multianalyst, an attached image analyzing software package, was used to determine the amount of RNA that had been synthesized from the image picked up. The various values of the results were compared. An increase in ability to incorporate 3′-dATP should result in a drop in the synthesis level. Accordingly, a comparison was made with a control, and the inverse thereof was employed as indicator of how readily 3′-dATP was incorporated.
# 3′-deoxy nucleotide = conditions: Izawa, M., et al. J. Biol. Chem., 273 (23): 14242 (1998); cited from earlier work
# 3′-dATP [2] = test: Test (2): 3′-dATP added during in vitro transcription with Biotin-labeled CTP, chemoluminescent signal detection; assay type: biochemical; conditions: 3′-dATP concentration 0.00125 mM, wild form taken as 1, average of three runs
# Method: as §1
# In this method, 3′-dATP was added during an in vitro transcription reaction and the synthesis level was determined by comparison with synthesis impairment. This will be described in greater detail. The template employed was pBluescriptII (Stratagene) pretreated with the restriction enzyme ScaI (made by Nippon Gene). The reaction conditions were: 40 mM Tris-HCl, pH 8.0, 25 mM NaCl, 8 mM MgCl2, 2 mM spermidine-(HCl)3, and 5 mM DTT. The concentration of ribonucleotides rATP, rCTP, rGTP, and rUTP was 0.5 mM. A 0.1 mM quantity of Biotin-labeled CTP was added and 3′-dATP was added in ranges of 0.00125 mM, 0.0025 mM, and 0.005 mM. A 25 U quantity of enzymes purified as set forth above were added to 10 μL of this solution and the reaction was conducted for 60 min at 37° C. At the conclusion of the reaction, 1 μL of 10× gel loading buffer (1 mM EDTA, 1% SDS, 50% glycerol, and 0.05% BPB) was added. The entire solution was then subjected to electrophoresis in a 1% modified formamide gel. At the conclusion of electrophoresis, northern hybridization was conducted, the synthesized product was transcribed onto a nylon membrane, and signal detection was conducted based on a chemoluminescent substrate according to a protocol of anti-SA-AP antibody (made by Oriental Yeast Co., diluted 20,000-fold) and CDP-Star™ (made by Roche Co.). A Fluoro S Multiimager (BioRad Co.) and Multianalyst, an attached image analyzing software package, were then employed to determine the level of the signal detected.
# [3] = tested on: fluorescent-labeled 3′-deoxynucleotide; test: Ability to incorporate fluorescent-labeled 3′-deoxynucleotide, fluorescent signal intensity on ABI 377 XL Sequencer; assay type: biochemical; conditions: for (1) Average signal intensity U: Bodipy(564/570)-3′dUTP; for (1) Average signal intensity U / (1) Average signal intensity C / (1) Average signal intensity G / (1) Average signal intensity A: 100 units of enzyme (50 units for F644Y/Δ1); for (1) Average signal intensity C: Bodipy(581/591)-3′dCTP; for (1) Average signal intensity G: Bodipy(FL)-3′dGTP; for (1) Average signal intensity A: Bodipy(R6G)-3′dATP; for (2) Signal intensity per unit of enzyme G: conversion of (1) per unit of enzyme; for Signal intensity per unit of enzyme A, value in parentheses relative to wild enzyme / Signal intensity per unit of enzyme C, value in parentheses relative to wild enzyme / Signal intensity per unit of enzyme G, value in parentheses relative to wild enzyme / Signal intensity per unit of enzyme U, value in parentheses relative to wild enzyme: relative to a value of 1 for the signal intensity of wild enzyme
# Method: A comparison was conducted of the ability to incorporate florescent-labeled 3′-deoxynucleotide of Δ-type enzyme of purified T7 RNA polymerase.
# This method was conducted in accordance with the method of Sasaki et al. (Sasaki, N., et al. Gene, 222(1): 17-24 (1998)). In greater detail, pBluescriptII DNA was employed as template. A solution obtained by mixing Bodipy(R6G)-3′dATP, Bodipy(FL)-3′dGTP, Bodipy(581/591)-3′dCTP, Bodipy(564/570)-3′dUTP, ATP, GTP, CTP, and UTP in prescribed proportions was employed to conduct reactions differing only with regard to the T7 RNA polymerase employed. The enzymes employed were 100 units of T7 RNA polymerase (wild type) and T7 RNA polymerase F644Y; and 50 units of T7 RNA polymerase F644Y/Δ1. The reaction product was subjected to electrophoresis with an ABI 377 XL Sequencer. The average value of the fluorescent signal intensity was compared for each nucleotide.
# Column (2) is a conversion of the value of (1) per unit of enzyme. Numbers shown in parentheses denote values relative to a value of “1” for the signal intensity of wild enzyme. […] Since the ABI 377 XL Sequencer is not a device for quantitative analysis, and operations is conducted on an extremely small amount of samples, large errors are to be expected.
Molecule,Relative ability to incorporate 3′-dATP (3′-dATP [1]),Increase in ability to incorporate 3′-deoxy nucleotide relative to the corresponding wild form (3′-deoxy nucleotide),Relative ability to incorporate 3′-dATP (3′-dATP [2]),Relative ability to incorporate 3′-dATP (3′-dATP [2]; listed as F644Y),(1) Average signal intensity U [3],(1) Average signal intensity C [3],(1) Average signal intensity G [3],(1) Average signal intensity A [3],(2) Signal intensity per unit of enzyme G [3],"Signal intensity per unit of enzyme A, value in parentheses relative to wild enzyme [3]","Signal intensity per unit of enzyme C, value in parentheses relative to wild enzyme [3]","Signal intensity per unit of enzyme G, value in parentheses relative to wild enzyme [3]","Signal intensity per unit of enzyme U, value in parentheses relative to wild enzyme [3]",Relative ability to incorporate 3′-dATP (3′-dATP [2]; listed as F644Y/Δ1),Relative ability to incorporate 3′-dATP (3′-dATP [2]; listed as T7 RNA polymerase F644Y/Δ 1)
"T7 RNA polymerase F644Y: mutant T7 RNA polymerase, tyrosine substituted for phenylalanine at residue 644; plasmid pT7RF644Y",1.45,about fivefold,1.20 ± 0.3,1.20±0.3 and 1.20,134,136,199,74,2.0,(1.1),(0.9),(0.9),(1.1),–,–
B1,15.5,–,–,–,332,317,446,156,8.92,(2.3),(2.2),(4.0),(2.8),2.30±0.3 and 2.30,2.30 ± 0.3

# Reference: patent US20040234981A1, “Method of determining dna base sequence” (priority 2001, published 2004)
